Patent US8669256B2, “Substituted thieno[2,3-b]pyrazine compounds as modulators of B-Raf kinase activity” (Merck Sharp & Dohme B.V., priority 2010, dated 2014)
Like-named read-outs stand apart in the source and are kept apart here.

Tests used:
[1] = biological target: T1, GST-tagged human recombinant active B-Raf (Δ1-415) (Homo sapiens, UniProt P15056); test: B-Raf kinase activity, IMAP coupled assay (B-Raf/MEK1/ERK2, fluorescence polarization); type: biochemical; conditions: bounds also given as pIC50 (>6, >7, >8); 60 min pre-incubation with compound, ATP 50 μM; read-out: IC50, B-Raf IMAP assay
T1 construct: GST; purchased Upstate/Millipore
T1 sequence (P15056 416-766, stated change not applied): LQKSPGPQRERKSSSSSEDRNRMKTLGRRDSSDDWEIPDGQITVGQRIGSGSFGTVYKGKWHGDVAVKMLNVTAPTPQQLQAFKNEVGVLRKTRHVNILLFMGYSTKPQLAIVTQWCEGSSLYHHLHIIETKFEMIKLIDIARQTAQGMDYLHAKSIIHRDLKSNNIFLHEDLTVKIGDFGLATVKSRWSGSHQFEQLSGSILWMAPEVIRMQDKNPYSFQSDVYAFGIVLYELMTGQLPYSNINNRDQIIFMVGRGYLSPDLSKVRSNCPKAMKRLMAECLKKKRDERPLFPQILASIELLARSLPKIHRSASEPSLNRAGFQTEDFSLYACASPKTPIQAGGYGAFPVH
Source text: (§1) In another assay the B-Raf kinase activity can be determined by using an IMAP assay (Immobilized Metal Assay for Phosphochemicals-based coupled assay). IMAP is a homogeneous fluorescence polarization (FP) assay based on affinity capture of phosphorylated peptide substrates. IMAP uses fluorescein-labeled peptide substrates that, upon phosphorylation by a protein kinase, bind to so called IMAP nanoparticles, which are derivatized with trivalent metal complexes. Such binding causes a change in the rate of the molecular motion of the peptide, and results in an increase in the FP value observed for the fluorescein label attached to the substrate peptide. In such an assay, B-Raf phosphorylates unactive MEK1. The phosphorylated MEK1 is capable of phosphorylating ERK2, which subsequently phosphorylates the fluorescein-labeled peptide substrate.
Determination of B-Raf Kinase Activity using an IMAP Assay
as §1, with “Inhibition of” for “In another assay the”, “was measured” for “can be determined by”, “Immobilized” for “IMAP assay (Immobilized”, “assay (IMAP).” for “assay).”, “this” for “such an”
Enzymes, substrate and ATP were diluted at all steps in Kinase Reaction buffer (10 mM Tris-HCl, 10 mM MgCl2, 0.01% Tween-20, 0.05% NaN3 pH 7.2, 1 mM DTT). The final volume at the kinase reaction step of the assay in the 384-well plate was 20 μl. The concentrations within brackets are final concentrations in the assay. B-Raf (GST-tagged human recombinant active B-Raf (Δ1-415), Upstate/Millipore; 0.2 U/ml) was pre-incubated with compounds or DMSO (1% final concentration) for 60 minutes at room temperature in the dark. Thereafter, MEK 1 (GST-tagged human recombinant unactive MEK1 (full-length); 64 ng/ml), ERK2 (GST-tagged human recombinant unactive ERK2 (full-length); 600 ng/ml), peptide substrate (Erktide, Molecular Devices; 50 nM) and ATP (50 μM) were added to the wells and the mix was incubated for another 60 minutes at 30° C. in the dark. Then, IMAP progressive binding buffer (75% 1× buffer A, 25% 1× buffer B, 1:900 Progressive Binding Reagent; Molecular Devices) was added followed by an incubation step of 60 minutes at room temperature in the dark. Finally, the FP signal was read on an Envision Multilabel reader (Perkin Elmer).

[2] = tested on: phosphorylation of ERK1/2 in A375 cells containing mutant B-Raf (V600E); test: Phospho-ERK FACE assay in A375 (B-Raf mutated) melanoma cell line; type: cell-based; conditions: Homo sapiens, A-375, A375 cells, 2 hours incubation, read-out: IC50, A375 melanoma phospho-ERK assay
Experimental: The B-Raf activity can also be determined in a B-Raf mutated melanoma cell line, such as the A375 cell line. Inhibition of phosphorylation of ERK1/2 can be measured using a Fast Activated Cell-based ELISA (FACE) from Active Motif (Carlsbad, U.S.A., CA). E.g. A375 cells, which are cells containing a mutant form of B-Raf (V600E) and thus contain high levels of phosphorylated ERK, can be incubated with Raf inhibitors. Then cells can be incubated with anti-phospho-ERK antibody and subsequently with horse radish peroxidase (HRP)-labeled secondary antibody. Finally, chemiluminescence reagents can be added, which react with HRP, to give a luminescence signal.
Determination of B-Raf Activity Using a A375 (B-Raf mutated) Melanoma Cell Line (Phospho-ERK FACE Assay)
Inhibition of phosphorylation of ERK1/2 was measured using a Fast Activated Cell-based ELISA (FACE) from Active Motif (Carlsbad, U.S.A., CA). Briefly, A375 cells, which are cells containing a mutant form of B-Raf (V600E) and thus contain high levels of phosphorylated ERK, were incubated for 2 hours with Raf inhibitors. Then, cells were fixed with paraformaldehyde, washed and following quenching and blocking, incubated with anti-phospho-ERK antibody, and as a control, on a separate plate, with ERK antibody. After washing and removal of the primary antibodies, the fixed cells were incubated with horse radish peroxidase (HRP)-labeled secondary antibody. Finally, chemiluminescence reagents were added, which react with HRP, to give a luminescence signal.
Detailed protocol: A375 cells were cultured in DMEM/F12 (Dulbecco's Modified Eagle Medium Nutrient Mixture F-12) (Invitrogen), supplemented with 10% fetal bovine serum (FBS) (Biowhittaker), 100 U/ml penicillin G and 100 μg/ml streptomycin (Gibco). For the phospho ERK assay, cells were seeded at a density of 15,000 cells/well in 100 μl culture medium in 96-well plates and incubated in a humidified atmosphere at 5% CO2 and 37° C. After 24 hours, cells were washed with DMEM/F12 supplemented with 0.1% FBS (assay medium 120 μl of assay medium was added and the plates were incubated overnight in a humidified atmosphere at 5% CO2 and 37° C. The next day, the assay medium was removed and compounds diluted in assay medium were added to the cells. Final DMSO concentration in the assay was 1%. After 2 hours incubation, cells were fixed by replacing the assay medium with 100 μl of 4% formaldehyde (Bio-Connect, Huissen, The Netherlands) in PBS. After 20 minutes of incubation at room temperature, cells were washed three times with 200 μl wash buffer (0.1% (vol/vol) Triton X-100 in PBS from the FACE kit) followed by an incubation of 20 minutes with 100 μl quenching buffer, containing 1% (vol/vol) hydrogen peroxide (Thermo Fisher Scientific) and 0.1% (vol/vol) sodium azide (Sigma-Aldrich) in phosphate-buffered saline. Cells were washed two times with wash buffer, incubated for 1 hour with 100 μl antibody blocking buffer from the kit and washed two times again. 40 μl of diluted antibody against phosphorylated ERK1/2 (1:500 from the FACE kit) was added and incubated overnight at 4° C. The phospho-ERK antibody has been raised against a synthetic phospho-peptide corresponding to residues Thr202 and Tyr204 of human ERK1 and Thr185 and Tyr187 of human ERK2. For the detection of total ERK, antibody against ERK1 and ERK2 (1:500 from the FACE kit) was added. The excessive primary antibody was washed out, and 100 μl diluted HRP-conjugated anti-rabbit IgG (1:2000 from the FACE kit) was added and incubated for 1 hour at room temperature. Secondary antibody was removed and cells were washed 3 times with wash buffer and twice with PBS. 50 μl per well of FACE chemiluminescent working solution was added. Chemiluminescence was measured on an Envision Multilabel reader.

[3] = between 1 μM and 100 nM (6<pIC50<7)
[4] = class between 10 μM and 1 μM (5<pIC50<6)
[5] = class given as below 100 nM (pIC50>7)

SMILES	IC50 [1] [nM]	IC50 [2, 3] [nM]	IC50 [2, 4] [nM]	IC50 [2, 5] [nM]
Cc1ccc(NC(=O)c2cccc(C(C)(C)C#N)c2)cc1NC(=O)c1cc2nc(NCc3ccncc3)cnc2s1 [Example 18, N-(5-(3-(2-cyanopropan-2-yl)benzamido)-2-methylphenyl)-2-(pyridin-4-ylmethylamino)thieno[2,3-b]pyrazine-6-carboxamide]	< 10	100 to 1000	–	–
CC(=O)c1cnc2sc(C(=O)Nc3cc(NC(=O)c4cccc(C(C)(C)C#N)c4)ccc3C)cc2n1 [Example 19, 2-acetyl-N-(5-(3-(2-cyanopropan-2-yl)benzamido)-2-methylphenyl)thieno[2,3-b]pyrazine-6-carboxamide]	< 100	–	1000 to 10000	–
Cc1ccc(NC(=O)c2cccc(C(C)(C)C#N)c2)cc1NC(=O)c1cc2nc(-c3cccnc3)cnc2s1 [Example 20, N-(5-(3-(2-cyanopropan-2-yl)benzamido)-2-methylphenyl)-2-(pyridin-3-yl)thieno[2,3-b]pyrazine-6-carboxamide]	< 10	–	–	< 100
Cc1ccc(NC(=O)c2cccc(C(C)(C)C#N)c2)cc1NC(=O)c1cc2nc(-c3ccncc3)cnc2s1 [Example 21, N-(5-(3-(2-cyanopropan-2-yl)benzamido)-2-methylphenyl)-2-(pyridin-4-yl)thieno[2,3-b]pyrazine-6-carboxamide]	< 100	–	–	< 100
Cc1cnc2sc(C(=O)Nc3cc(NC(=O)c4cccc(C(C)(C)C#N)c4)ccc3C)cc2n1 [Example 24, N-(5-(3-(2-cyanopropan-2-yl)benzamido)-2-methylphenyl)-2-methylthieno[2,3-b]pyrazine-6-carboxamide]	< 10	100 to 1000	–	–
COc1ccc(C(=O)Nc2ccc(C)c(NC(=O)c3cc4nccnc4s3)c2)cc1C(F)(F)F [Example 28, N-(5-(4-methoxy-3-(trifluoromethyl)benzamido)-2-methylphenyl)thieno[2,3-b]pyrazine-6-carboxamide]	< 100	100 to 1000	–	–
Cc1ccc(NC(=O)c2cc(C(C)(C)C)n[nH]2)cc1NC(=O)c1cc2nccnc2s1 [Example 30, N-(5-(3-tert-butyl-1H-pyrazole-5-carboxamido)-2-methylphenyl)thieno[2,3-b]pyrazine-6-carboxamide]	< 100	100 to 1000	–	–
Cc1ccc(NC(=O)c2cc(F)cc(C(F)(F)F)c2)cc1NC(=O)c1cc2nccnc2s1 [Example 32, N-(5-(3-fluoro-5-(trifluoromethyl)benzamido)-2-methylphenyl)thieno[2,3-b]pyrazine-6-carboxamide]	< 100	–	1000 to 10000	–
Cc1ccc(NC(=O)c2cccc(C(F)(F)F)c2F)cc1NC(=O)c1cc2nccnc2s1 [Example 38, N-(5-(2-fluoro-3-(trifluoromethyl)benzamido)-2-methylphenyl)thieno[2,3-b]pyrazine-6-carboxamide]	< 100	100 to 1000	–	–
Cc1ccc(NC(=O)c2cc(OC(F)(F)F)ccc2F)cc1NC(=O)c1cc2nccnc2s1 [Example 39, N-(5-(2-fluoro-5-(trifluoromethoxy)benzamido)-2-methylphenyl)thieno[2,3-b]pyrazine-6-carboxamide]	< 100	–	1000 to 10000	–

The remaining lines, values ahead:

IC50 [1] [nM]	IC50 [2, 3] [nM]	IC50 [2, 4] [nM]	IC50 [2, 5] [nM]	SMILES
< 100	–	1000 to 10000	–	Cc1ccc(NC(=O)c2ccnc(N3CCCC3)c2)cc1NC(=O)c1cc2nccnc2s1 [Example 26, N-(2-methyl-5-(2-(pyrrolidin-1-yl)isonicotinamido)phenyl)thieno[2,3-b]pyrazine-6-carboxamide]
< 10	100 to 1000	–	–	Cc1ccc(NC(=O)c2cccc(C(C)(C)C#N)c2)cc1NC(=O)c1cc2nccnc2s1 [Example 27, N-(5-(3-(2-cyanopropan-2-yl)benzamido)-2-methylphenyl)thieno[2,3-b]pyrazine-6-carboxamide]
< 10	100 to 1000	–	–	Cc1ccc(NC(=O)c2cccc(C3(C#N)CC3)c2)cc1NC(=O)c1cc2nccnc2s1 [Example 29, N-(5-(3-(1-cyanocyclopropyl)benzamido)-2-methylphenyl)thieno[2,3-b]pyrazine-6-carboxamide]
< 100	100 to 1000	–	–	Cc1ccc(NC(=O)c2ccc(C)c(C(F)(F)F)c2)cc1NC(=O)c1cc2nccnc2s1 [Example 31, N-(2-methyl-5-(4-methyl-3-(trifluoromethyl)benzamido)phenyl)thieno[2,3-b]pyrazine-6-carboxamide]
< 100	–	1000 to 10000	–	Cc1ccc(NC(=O)c2cccc(OC(F)(F)F)c2)cc1NC(=O)c1cc2nccnc2s1 [Example 35, N-(2-methyl-5-(3-(trifluoromethoxy)benzamido)phenyl)thieno[2,3-b]pyrazine-6-carboxamide]
< 100	–	1000 to 10000	–	Cc1ccc(NC(=O)c2cccc(C3(C#N)CCOCC3)c2)cc1NC(=O)c1cc2nccnc2s1 [Example 36, N-(5-(3-(4-cyanotetrahydro-2H-pyran-4-yl)benzamido)-2-methylphenyl)thieno[2,3-b]pyrazine-6-carboxamide]
< 100	–	1000 to 10000	–	Cc1ccc(NC(=O)c2ccc(F)c(C(F)(F)F)c2)cc1NC(=O)c1cc2nccnc2s1 [Example 37, N-(5-(4-fluoro-3-(trifluoromethyl)benzamido)-2-methylphenyl)thieno[2,3-b]pyrazine-6-carboxamide]
